The EC50 is the concentration at which the effect is half-maximal.

For the experiment, the target named is T1, human TGR5 (Homo sapiens, UniProt Q8TDU6).
T1 construct: expressed in transfected cells
T1 sequence (Q8TDU6 1-330): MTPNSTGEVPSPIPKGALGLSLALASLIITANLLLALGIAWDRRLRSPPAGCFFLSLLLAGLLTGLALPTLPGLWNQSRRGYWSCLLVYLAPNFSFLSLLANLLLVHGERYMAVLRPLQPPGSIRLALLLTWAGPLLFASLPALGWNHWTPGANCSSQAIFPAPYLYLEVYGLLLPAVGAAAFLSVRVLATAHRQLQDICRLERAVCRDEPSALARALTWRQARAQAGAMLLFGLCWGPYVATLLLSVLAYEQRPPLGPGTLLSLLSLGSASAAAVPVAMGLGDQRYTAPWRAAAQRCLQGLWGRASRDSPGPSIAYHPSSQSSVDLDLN
Nature of the experiment: cAMP production assay in HEK293 cells stably expressing TGR5 (LANCE TR-FRET). Type of experiment: cell-based. Particulars: 30 minutes stimulation, read-out: cAMP Production in 293-TGR5 Cells EC50. In a few lines:
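HEK293 cells stably transfected with human TGR5, incubated overnight in DMEM with 0.1% FBS, then given IBMX (1 mM final) and stimulated with compounds for 30 minutes. cAMP measured by LANCE TR-FRET after 1-7 h detection at room temperature. EC50 values reported as ≦10 μM (+) or >10 μM (−).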
Background: cAMP levels reflect the balance of adenylyl cyclase and phosphodiesterase activity.
Take `O=c1c2cc(F)ccc2nc(-c2cccc(F)c2)n1NCc1ccc(Br)cc1` [Example 106, 3-(4-bromobenzylamino)-6-fluoro-2-(3-fluorophenyl)quinazolin-4(3H)-one]: the EC50 is at most 10 µM.

In the case of `O=c1c2ccccc2nc(-c2cccc(F)c2)n1NCc1ccc(F)c(C(F)(F)F)c1` [Example 107, 3-(4-fluoro-3-(trifluoromethyl)benzylamino)-2-(3-fluorophenyl)quinazolin-4(3H)— one], the EC50 was at most 10 µM.

Take `O=c1c2ccc(F)cc2nc(-c2ccc(F)cc2)n1NCc1ccc(Cl)cc1` [Example 108, 3-(4-chlorobenzylamino)-7-fluoro-2-(4-fluorophenyl)quinazolin-4(3H)-one]: the EC50 was at most 10 µM.

Take `Cc1ccc(-c2nc3ccccc3c(=O)n2NCc2ccc(Br)cc2)cc1Cl` [Example 109, 3-(4-bromobenzylamino)-2-(3-chloro-4-methylphenyl)quinazolin-4(3H)-one]: the EC50 was at most 10 µM.

As to `Cc1ccc(-c2nc3ccccc3c(=O)n2NCc2ccc(Cl)cc2)cc1Cl` [Example 110, 2-(3-chloro-4-methylphenyl)-3-(4-chlorobenzylamino)quinazolin-4(3H)-one], the EC50 was at most 10 µM.

Take `Cc1cccc2nc(-c3ccc(F)cc3)n(NCc3ccc(Br)cc3)c(=O)c12` [Example 111, 3-(4-bromobenzylamino)-2-(4-fluorophenyl)-5-methylquinazolin-4(3H)-one]: the concentration giving a half-maximal response (EC50) was at most 10 µM.

Consider `O=c1c2c(F)cccc2nc(-c2ccc(F)cc2)n1NCc1ccc(Br)cc1` [Example 112], for which the EC50 is at most 10 µM.

`O=c1c2cccc(O)c2nc(-c2ccc(F)cc2)n1NCc1ccc(Br)cc1` [Example 113, 3-(4-bromobenzylamino)-2-(4-fluorophenyl)-8-hydroxyquinazolin-4(3H)-one]: the EC50 was at most 10 µM.

For the compound `O=c1c2cccc(O)c2nc(-c2ccc(F)cc2)n1NCc1ccc(Cl)cc1` [Example 114, 3-(4-chlorobenzylamino)-2-(4-fluorophenyl)-8-hydroxyquinazolin-4(3H)-one], the EC50 is at most 10 µM.

For the compound `COc1ccc(-c2nc3ccccc3c(=O)n2NCc2ccc(Br)cc2)cn1` [Example 116, 3-(4-bromobenzylamino)-2-(6-methoxypyridin-3-yl)quinazolin-4(3H)— one], the EC50 was at most 10 µM.

As to `O=c1c2ccccc2nc(-c2ccc(O)nc2)n1NCc1ccc(Br)cc1` [Example 117, 3-(4-bromobenzylamino)-2-(6-hydroxypyridin-3-yl)quinazolin-4(3H)-one], the EC50 is at most 10 µM.

Regarding `COc1ccc(-c2nc3ccccc3c(=O)n2NCc2ccc(Br)cc2)cc1O` [Example 118, 3-(4-bromobenzylamino)-2-(3-hydroxy-4-methoxyphenyl)quinazolin-4(3H)-one], the EC50 was at most 10 µM.

Turning to `COc1ccc(-c2nc3ccccc3c(=O)n2NCc2ccc(Cl)cc2)cc1O` [Example 119, 3-(4-chlorobenzylamino)-2-(3-hydroxy-4-methoxyphenyl)quinazolin-4(3H)— one], the EC50 is at most 10 µM.

For the origin of these results see patent US20090035306A1 (KALYPSYS, INC., priority 2006, published 2009).
